Legend:
M1 muscarinic receptor = target: T1, M1 muscarinic receptor (Homo sapiens, UniProt P11229); test: Functional mobilization of intracellular calcium (FLIPR, Fluo-3), M1-CHO cells; type: cell-based; details: compound nos. 1-454; for Emax: 100% efficacy is the maximum response obtained with the Carbachol control, read-out: M1 Efficacy
T1 construct: expressed in transfected cells; host or cells: CHO cells (M1-CHO, under zeocin and G418 selection)
T1 sequence (P11229 1-460): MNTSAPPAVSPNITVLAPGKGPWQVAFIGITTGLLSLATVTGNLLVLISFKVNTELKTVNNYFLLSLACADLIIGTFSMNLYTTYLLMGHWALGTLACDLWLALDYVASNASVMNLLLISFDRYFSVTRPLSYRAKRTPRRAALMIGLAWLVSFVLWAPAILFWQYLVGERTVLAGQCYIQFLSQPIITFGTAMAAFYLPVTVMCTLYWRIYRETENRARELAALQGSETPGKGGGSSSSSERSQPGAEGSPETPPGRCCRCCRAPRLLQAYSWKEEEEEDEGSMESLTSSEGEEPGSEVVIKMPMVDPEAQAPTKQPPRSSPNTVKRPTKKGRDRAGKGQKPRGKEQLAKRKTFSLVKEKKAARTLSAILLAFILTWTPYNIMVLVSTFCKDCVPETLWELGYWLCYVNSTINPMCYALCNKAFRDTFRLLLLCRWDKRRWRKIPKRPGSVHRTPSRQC
How it was run: (§1)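 Intracellular calcium was tracked by fluorescence (488/540 nm) over 60 sec after compound addition to dye-loaded CHO cells expressing the receptor. Inhibitory activity used a 15 min pre-incubation before carbachol at the subtype EC80.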

M4 muscarinic receptor = target: T2, M4 muscarinic receptor (Homo sapiens, UniProt P08173); test: Functional mobilization of intracellular calcium (FLIPR, Fluo-3), M4-CHO cells; type: cell-based; details: compound nos. 1-454; for Emax: 100% efficacy is the maximum response obtained with the Carbachol control, read-out: M4 Efficacy
T2 construct: expressed in transfected cells; host or cells: CHO cells (M4-CHO, under puromycin, zeocin and blasticidin selection)
T2 sequence (P08173 1-479): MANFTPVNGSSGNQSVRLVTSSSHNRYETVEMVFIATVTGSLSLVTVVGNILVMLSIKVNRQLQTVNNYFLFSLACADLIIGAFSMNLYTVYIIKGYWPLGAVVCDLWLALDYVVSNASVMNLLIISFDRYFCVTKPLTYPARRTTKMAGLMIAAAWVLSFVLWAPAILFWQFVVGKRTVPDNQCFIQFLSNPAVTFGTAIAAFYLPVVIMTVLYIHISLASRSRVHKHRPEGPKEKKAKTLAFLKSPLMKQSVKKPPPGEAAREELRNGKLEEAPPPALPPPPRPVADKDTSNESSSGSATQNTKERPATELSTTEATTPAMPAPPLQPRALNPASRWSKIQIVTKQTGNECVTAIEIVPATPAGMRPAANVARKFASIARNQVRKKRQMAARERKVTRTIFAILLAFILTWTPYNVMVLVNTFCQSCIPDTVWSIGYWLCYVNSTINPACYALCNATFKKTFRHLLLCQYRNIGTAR
How it was run: as §1

[1] = M1-CHO cells, calcium mobilization
[2] = M4-CHO cells, calcium mobilization

COc1ccc(N2CCC(N3CCC4(CC3)CN(C(=O)N(C)C)c3ccc(F)cc34)CC2)cc1 [compound 442]
M1 Activity (M1 muscarinic receptor): ++ (activity was measured to be between 0.7 μM and 3.0 μM)
Emax (M1 muscarinic receptor): 65 to 85%
M4 Activity (M4 muscarinic receptor): ++ (activity was measured to be between 0.1 μM and 4.0 μM)
Emax (M4 muscarinic receptor): 55 to 70%

CC(=O)N1CC2(CCN(CC3CCOC3)CC2)c2cc(F)ccc21 (stereo not drawn) [compound 135]
Emax (M1 muscarinic receptor): > 85%
M1 Activity (M1 muscarinic receptor; [1]): +++ (activity was measured to be less than or equal to 0.7 μM)
Emax (M4 muscarinic receptor): > 70%
M4 Activity (M4 muscarinic receptor; [2]): ++ (activity was measured to be between 0.1 μM and 4.0 μM)

CCOC(=O)N1C2CCC1CC(N1CCC3(CC1)COc1ccc(Cl)cc13)C2 (stereo not drawn) [compound 99]
Emax (M1 muscarinic receptor): < 65%
M1 Activity (M1 muscarinic receptor; [1]): +++ (activity was measured to be less than or equal to 0.7 μM)
Emax (M4 muscarinic receptor): < 55%
M4 Activity (M4 muscarinic receptor; [2]): + (activity was measured to be greater than or equal to 4.0 μM)

Fc1ccc2c(c1)C1(CCN(C[C@@H]3C[C@H]4CC[C@H]3O4)CC1)CN2 [compound 429]
M1 Activity (M1 muscarinic receptor): ++ (activity was measured to be between 0.7 μM and 3.0 μM)
Emax (M1 muscarinic receptor): < 65%
M4 Activity (M4 muscarinic receptor): + (activity was measured to be greater than or equal to 4.0 μM)
Emax (M4 muscarinic receptor): < 55%

CC(=O)N1CC2(CCN(C3CCN(C(=O)OCCF)CC3)CC2)c2cc(F)ccc21 [compound 172]
Emax (M1 muscarinic receptor): > 85%
M1 Activity (M1 muscarinic receptor; [1]): + (activity was measured to be greater than or equal to 3.0 μM)
Emax (M4 muscarinic receptor): 55 to 70%
M4 Activity (M4 muscarinic receptor; [2]): + (activity was measured to be greater than or equal to 4.0 μM)

CCCC1CCC(N2CCC3(CC2)CN(C(C)=O)c2ccc(F)cc23)CC1 (stereo not drawn) [compound 131]
Emax (M1 muscarinic receptor): 65 to 85%
M1 Activity (M1 muscarinic receptor; [1]): +++ (activity was measured to be less than or equal to 0.7 μM)
Emax (M4 muscarinic receptor): > 70%
M4 Activity (M4 muscarinic receptor; [2]): ++ (activity was measured to be between 0.1 μM and 4.0 μM)

CCOC(=O)N1C2CCC1CC(N1CCC3(CC1)CN(C(=O)c1cc(C)n(C)n1)c1ccc(F)cc13)C2 (stereo not drawn) [compound 50]
Emax (M1 muscarinic receptor): > 85%
M1 Activity (M1 muscarinic receptor; [1]): +++ (activity was measured to be less than or equal to 0.7 μM)
Emax (M4 muscarinic receptor): > 70%
M4 Activity (M4 muscarinic receptor; [2]): ++ (activity was measured to be between 0.1 μM and 4.0 μM)

Fc1ccc2c(c1)C1(CCN(C[C@H]3C[C@H]4CC[C@H]3C4)CC1)CO2 [compound 207]
Emax (M1 muscarinic receptor): 65 to 85%
M1 Activity (M1 muscarinic receptor; [1]): ++ (activity was measured to be between 0.7 μM and 3.0 μM)
Emax (M4 muscarinic receptor): < 55%
M4 Activity (M4 muscarinic receptor; [2]): + (activity was measured to be greater than or equal to 4.0 μM)

CCOC(=O)N1C2CCC1CC(N1CCC3(CC1)CN(S(=O)(=O)c1c(C)noc1C)c1ccc(F)cc13)C2 (stereo not drawn) [compound 89]
Emax (M1 muscarinic receptor): 65 to 85%
M1 Activity (M1 muscarinic receptor; [1]): +++ (activity was measured to be less than or equal to 0.7 μM)
Emax (M4 muscarinic receptor): < 55%
M4 Activity (M4 muscarinic receptor; [2]): ++ (activity was measured to be between 0.1 μM and 4.0 μM)

CC(=O)N1CC2(CCN(C3CCN(c4nccs4)CC3)CC2)c2cc(F)ccc21 [compound 432]
M1 Activity (M1 muscarinic receptor): +++ (activity was measured to be less than or equal to 0.7 μM)
Emax (M1 muscarinic receptor): 65 to 85%
M4 Activity (M4 muscarinic receptor): +++ (activity was measured to be less than or equal to 0.1 μM)
Emax (M4 muscarinic receptor): 55 to 70%

CN(C)C(=O)N1CC2(CCN(C3CCN(c4cnccn4)CC3)CC2)c2cc(F)ccc21 [compound 444]
M1 Activity (M1 muscarinic receptor): +++ (activity was measured to be less than or equal to 0.7 μM)
Emax (M1 muscarinic receptor): 65 to 85%
M4 Activity (M4 muscarinic receptor): +++ (activity was measured to be less than or equal to 0.1 μM)
Emax (M4 muscarinic receptor): 55 to 70%

Cc1ccc2c(c1)C1(CCN(CC3CCC4CCC3C4)CC1)CN2 (stereo not drawn) [compound 241]
Emax (M1 muscarinic receptor): < 65%
M1 Activity (M1 muscarinic receptor; [1]): ++ (activity was measured to be between 0.7 μM and 3.0 μM)
Emax (M4 muscarinic receptor): > 70%
M4 Activity (M4 muscarinic receptor; [2]): + (activity was measured to be greater than or equal to 4.0 μM)
